The experiment concerns standard panel of 12 human tumor cell lines (NCI-H23, NCI-H522, MDA-MB-231, MDA-MB-435, SW-620, COLO 205, LOX IMVI, UACC-62, OVCAR-3, OVCAR-5, U251, SF295). The experiment in a line: Hollow fiber assay (HFA) with stable endpoint MTT assay, compound given to mice carrying intraperitoneal and subcutaneous fiber implants. In kind it is in vivo. The arrangement: Total HFA Score: scale not given here. The note with it: for Total HFA Score / IP Score / SC Score: HFA in mice; for Total HFA Score: IP + SC scores; for IP Score: intraperitoneal fiber implants; for IP Score / SC Score: 2 points per 50% or greater reduction in viable cell mass; for SC Score: subcutaneous fiber implants; for in vivo anti-cancer activity compared with Compound C (in words): intraperitoneal injection, Table 1. As for the experimental part:
Compounds A-C were tested in a hollow fiber assay for in vivo activity. Each compound was tested against a standard panel of 12 human tumor cell lines including NCI-H23, NCI-H522, MDA-MB-231, MDA-MB-435, SW-620, COLO 205, LOX IMVI, UACC-62, OVCAR-3, OVCAR-5, U251 and SF295. The cell lines were cultivated in RPMI-1640 containing 10% FBS and 2 mM glutamine. On the day preceding hollow fiber preparation, the cells were given a supplementation of fresh medium to maintain log phase growth. For fiber preparation, the cells were harvested by standard trypsinization technique and resuspended at the desired cell density. The cell suspensions were flushed into 1 mm polyvinylidene fluoride (PVDF) hollow fibers (MW exclusion of 500,000 Da) and subsequently heat-sealed at 2 cm intervals. The samples generated from these seals were placed into tissue culture medium and incubated at 37° C. in 5% CO2 for 24-48 hours prior to implantation. A total of 3 different tumor cell lines were prepared for each experiment so that each mouse received 3 intraperitoneal implants (1 of each tumor cell line) and 3 subcutaneous implants (1 of each tumor cell line). A total of 4 experiments were conducted on each mouse (3 cell lines/experiment×4 experiments=12 cell lines).
On the day of implantation, samples of each tumor cell line were quantitated for viable cell mass by a stable endpoint MTT assay so that the time 0 cell mass was known. In the MTT assay, the fibers were incubated in 6-well plates (1-6 fibers/well) with 3 mL of pre-warmed (37° C.) complete medium containing MTT (1 mg/mL) (Sigma) for 4 hours at 37° C. in 5% CO2. The MTT solution was aspirated and the fibers were washed with 2 mL of saline containing 2.5% protamine sulfate overnight at 4° C. A second wash was performed with 2 mL of saline containing 2.5% protamine sulfate, and the fibers were maintained at 4° C. for a minimum of 2 hours. The fibers were then removed from the protamine sulfate, individually wiped, placed in a 24-well plate (1 fiber/well), cut in half and dried overnight in a biosafety hood. To extract the formazan, DMSO was added (0.25 mL) to each well and the plates were rotated for 4 hours at room temperature. The extracted samples were transferred to 96-well plates and the OD was determined at 540 nm. From these spectrophotomeric measurements, the cytostatic and cytocidal capacities of the test compound were assessed.
Following implantation of the hollow fibers, mice were treated with one of the compounds, as listed in Tables 1 and 2 starting on day 3 or 4 following fiber implantation and continuing once daily for a total of 4 doses. Each compound was either assessed by intraperitoneal injection (Example 1) or by oral administration (Example 2) at 2 dose levels with 3 mice/dose/experiment. Vehicle controls consisted of 6 mice receiving the compound diluent only. The fibers were collected from the mice on the day following the fourth compound treatment and subjected to the stable endpoint MTT assay. The optical density of each sample was determined spectrophotometrically at 540 nm and the mean of each treatment group was calculated. The percent net cell growth in each treatment group was determined and compared to the percent net cell growth in the vehicle treated controls.
In the context of the following examples, compounds were selected for further testing (e.g., time/dose exposure studies, preliminary pharmacology studies, subcutaneous xenograft efficacy studies) on the basis of several hollow fiber assay criteria, including (1) a reduction in net cell growth of 50% or greater in 10 of the 48 possible test combinations; (2) a reduction in net cell growth of 50% or greater in a minimum of 4 of the 24 distant site combinations (SC score); and/or (3) cell kill of 1 or more cell lines in either implant site (reduction in the viable cell mass below the level present at the start of the experiment). […]

Setting [1] is: compound by intraperitoneal injection once daily for 4 days, 2 dose levels (A, B: 75 and 50 mg/kg/dose; C: 20 and 13.4 mg/kg/dose).
Where [2] appears, read: compound orally (PO) once daily for 4 days, 75 and 50 mg/kg/dose.

For `CO[C@H]1/C=C\C=C(/C)C(=O)NC2=CC(=O)C(NCCN(C)C)=C(C[C@@H](C)C[C@H](OC)[C@H](O)[C@@H](C)/C=C(\C)[C@@H]1OC(N)=O)C2=O` [Compound A, 17-Dimethylaminoethylamino-17-demethoxygeldanamycin], under setting [1], the “Total HFA Score” value is reported as 30, the “IP Score” value was determined as 20 and the “SC Score” value was found to be 10. Moreover, the “in vivo anti-cancer activity compared with Compound C (in words)” value (HFA) is “significantly greater in vivo anti-cancer activity”.

Consider `CO[C@H]1/C=C\C=C(/C)C(=O)NC2=CC(=O)C(NCCN(C)C)=C(C[C@@H](C)C[C@H](OC)[C@H](O)[C@@H](C)/C=C(\C)[C@@H]1OC(N)=O)C2=O.Cl` [Compound B, 17-Demethoxy-17-[[2-(dimethylamino)ethyl]amino]geldanamycin hydrochloride], for which, under setting [1], the “Total HFA Score” value worked out at 42, the “IP Score” value was found to be 24 and the “SC Score” value was determined as 18. In addition, under setting [2], the “Total HFA Score” value stood at 20, the “IP Score” value is 10 and the “SC Score” value is on record as 10. For the same compound, the “in vivo anti-cancer activity compared with Compound C (in words)” value (HFA) is listed as “significantly greater in vivo anti-cancer activity”. Moreover, under “HFA, oral administration, Table 2”, the “in vivo anti-cancer activity by oral administration (in words)” value was “significant in vivo anti-cancer activity”.

In the case of `CO[C@H]1/C=C\C=C(/C)C(=O)NC2=CC(=O)C(NCCCN(C)C)=C(C[C@@H](C)C[C@H](OC)[C@H](O)[C@@H](C)/C=C(\C)[C@@H]1OC(N)=O)C2=O` [Compound C, 17-Dimethylaminopropylamino-17-demethoxygeldanamycin, reference compound], under setting [1], the “Total HFA Score” value was found to be 16, the “IP Score” value came to 14 and the “SC Score” value amounted to 2.
